Literature values, collected in patent US10226403B2, “Composition and method for using medicament for endodontic irrigation, stem cell preparation and tissue regeneration” (priority 2012, dated 2019).
Where two headings read alike, the source gives them in different places.

OCl [Sodium hypochlorite, sodium hypochlorite]
effectiveness: highly effective | effectiveness (at 1.3-2.5%): ineffective
